# Measurements: PMC10257182, “Discovery of senolytics using machine learning” (Nature Communications, 2023)
# Values joined by “and” are separate entries in the source; they are usually repeats but may differ in a detail not shown here. Equal entries are not always repeated. Where two headings read alike, the source gives them in different places.
# Key:
# Format in all cases: cell-based, human
# [1] = tested on: senescent A549 cells (etoposide-induced); assay: Nuclei count senolytic assay, therapy-induced senescence (TIS) model, senescent cells; settings: for % Cell Survival: senescence cells, single replicate
# Outline: (§1)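 Etoposide 100 μM, 48 h, + 3 d standard media → senescent A549; untreated A549 = controls. 24 h post-seeding, cpds 10 nM–10 μM final, 10-pt […], 72 h, n=3. Fix formaldehyde, permeabilise Triton-X100, Hoechst 2 μg/ml, image, count nuclei.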
# [2] = tested on: non-senescent control IMR90 ER:RAS cells; assay: Nuclei count (Hoechst, high content imaging) senolytic assay, OIS model, non-senescent control cells; settings: Homo sapiens
# Outline: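 IMR90 ER:RAS (p14), ±4-OHT 100 nM; cpd 10 nM–10 μM, 10-pt […], 72 h, n=3. Fix formaldehyde, Triton X-100, Hoechst 2 μg/ml final. Readout: imaged nuclei count vs untreated; ouabain positive control.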
# [3] = tested on: non-senescent control A549 cells; assay: Nuclei count senolytic assay, TIS model, non-senescent control cells; settings: for % Cell Survival: control cells, single replicate
# Outline: as §1
smiles,measurement,setting,value
"CO[C@H]1C[C@H](O[C@H]2CC[C@@]3(C)[C@H](CC[C@@H]4[C@@H]3CC[C@]3(C)[C@@H](C5=CC(=O)OC5)[C@@H](OC(C)=O)C[C@]43O)C2)O[C@@H](C)[C@@H]1O [Oleandrin, oleandrin]",viability at 10 µM,"[1]; Homo sapiens, A549, log (dose) [M] -5, Senescent cells, mean, read-out: Mean % Cell Survival",0.749%
same,viability at 4.68 µM,"[1]; Homo sapiens, A549, log (dose) [M] -5.33, Senescent cells, mean, read-out: Mean % Cell Survival",1.57%
same,viability at 2.19 µM,"[1]; Homo sapiens, A549, log (dose) [M] -5.66, Senescent cells, mean, read-out: Mean % Cell Survival",1.08%
same,viability at 1 µM,"[1]; Homo sapiens, A549, log (dose) [M] -6, Senescent cells, mean, read-out: Mean % Cell Survival",1.7%
same,viability at 0.468 µM,"[1]; Homo sapiens, A549, log (dose) [M] -6.33, Senescent cells, mean, read-out: Mean % Cell Survival",1.38%
same,viability at 0.219 µM,"[1]; Homo sapiens, A549, log (dose) [M] -6.66, Senescent cells, mean, read-out: Mean % Cell Survival",2.19%
same,viability at 0.1 µM,"[1]; Homo sapiens, A549, log (dose) [M] -7, Senescent cells, mean, read-out: Mean % Cell Survival",3.51%
same,viability at 0.0468 µM,"[1]; Homo sapiens, A549, log (dose) [M] -7.33, Senescent cells, mean, read-out: Mean % Cell Survival",9.16%
same,viability at 0.0219 µM,"[1]; Homo sapiens, A549, log (dose) [M] -7.66, Senescent cells, mean, read-out: Mean % Cell Survival",3.39%
same,viability at 0.01 µM,"[1]; Homo sapiens, A549, log (dose) [M] -8, Senescent cells, mean, read-out: Mean % Cell Survival",26.8%
same,IC50,"[1]; Homo sapiens, TIS model, etoposide-induced senescent A549, nuclei count, 72 h",5.4 nM
same,concentration at which a senolytic effect was reached,"[1]; TIS A549, Hoechst labelling, marginal effect on normal cells",10 nM
same,senolytic action (in words),"[1]; experimental screen, TIS senescent A549",strong senolytic action
same,% Cell Survival,[1]; log (dose) [M] -5,1.111% and 0.1906% and 0.9453%
same,% Cell Survival,[1]; log (dose) [M] -5.33,1.898% and 1.858% and 0.9453%
same,% Cell Survival,[1]; log (dose) [M] -5.66,1.065% and 1.477% and 0.6965%
same,% Cell Survival,[1]; log (dose) [M] -6,2.222% and 1.477% and 1.393%
same,% Cell Survival,[1]; log (dose) [M] -6.33,1.806% and 1.286% and 1.045%
same,% Cell Survival,[1]; log (dose) [M] -6.66,2.083% and 3.383% and 1.095%
same,% Cell Survival,[1]; log (dose) [M] -7,3.194% and 5.908% and 1.443%
same,% Cell Survival,[1]; log (dose) [M] -7.33,3.7037% and 20.1525% and 3.632%
same,% Cell Survival,[1]; log (dose) [M] -7.66,6.2037% and 0.09528% and 3.8806%
same,% Cell Survival,[1]; log (dose) [M] -8,34.3519% and 21.3435% and 24.6766%
same,viability at 10 µM,"[2]; IMR-90, 72 h, Control, log (dose) [M] -5, 72 h, mean n=3 (Fig 3C), read-out: Mean % Cell Survival",15%
same,viability at 4.677 µM,"[2]; IMR-90, 72 h, Control, log (dose) [M] -5.33, 72 h, mean n=3 (Fig 3C), read-out: Mean % Cell Survival",20%
same,viability at 2.188 µM,"[2]; IMR-90, 72 h, Control, log (dose) [M] -5.66, 72 h, mean n=3 (Fig 3C), read-out: Mean % Cell Survival",20.5%
same,viability at 1 µM,"[2]; IMR-90, 72 h, Control, log (dose) [M] -6, 72 h, mean n=3 (Fig 3C), read-out: Mean % Cell Survival",25.6%
same,viability at 0.4677 µM,"[2]; IMR-90, 72 h, Control, log (dose) [M] -6.33, 72 h, mean n=3 (Fig 3C), read-out: Mean % Cell Survival",24.8%
same,viability at 0.2188 µM,"[2]; IMR-90, 72 h, Control, log (dose) [M] -6.66, 72 h, mean n=3 (Fig 3C), read-out: Mean % Cell Survival",24.3%
same,viability at 0.1 µM,"[2]; IMR-90, 72 h, Control, log (dose) [M] -7, 72 h, mean n=3 (Fig 3C), read-out: Mean % Cell Survival",34.7%
same,viability at 0.04677 µM,"[2]; IMR-90, 72 h, Control, log (dose) [M] -7.33, 72 h, mean n=3 (Fig 3C), read-out: Mean % Cell Survival",53.1%
same,viability at 0.02188 µM,"[2]; IMR-90, 72 h, Control, log (dose) [M] -7.66, 72 h, mean n=3 (Fig 3C), read-out: Mean % Cell Survival",80.8%
same,viability at 0.01 µM,"[2]; IMR-90, 72 h, Control, log (dose) [M] -8, 72 h, mean n=3 (Fig 3C), read-out: Mean % Cell Survival",92.8%
same,viability at 4.677 µM,"[2]; IMR-90, control, log (dose) [M] -5.33, individual replicates (Fig 3D), read-out: % Cell Survival",20.6%
same,viability at 2.188 µM,"[2]; IMR-90, control, log (dose) [M] -5.66, individual replicates (Fig 3D), read-out: % Cell Survival",18.9%
same,viability at 1 µM,"[2]; IMR-90, control, log (dose) [M] -6, individual replicates (Fig 3D), read-out: % Cell Survival",22.9%
same,viability at 0.4677 µM,"[2]; IMR-90, control, log (dose) [M] -6.33, individual replicates (Fig 3D), read-out: % Cell Survival",19.9%
same,viability at 0.2188 µM,"[2]; IMR-90, control, log (dose) [M] -6.66, individual replicates (Fig 3D), read-out: % Cell Survival",22.4%
same,viability at 0.1 µM,"[2]; IMR-90, control, log (dose) [M] -7, individual replicates (Fig 3D), read-out: % Cell Survival",31.3%
same,viability at 0.04677 µM,"[2]; IMR-90, control, log (dose) [M] -7.33, individual replicates (Fig 3D), read-out: % Cell Survival",54.6%
same,viability at 0.02188 µM,"[2]; IMR-90, control, log (dose) [M] -7.66, individual replicates (Fig 3D), read-out: % Cell Survival",71%
same,viability at 0.01 µM,"[2]; IMR-90, control, log (dose) [M] -8, individual replicates (Fig 3D), read-out: % Cell Survival",82.4%
same,IC50,"[2]; IMR-90, OIS model, non-senescent IMR90 ER:RAS, nuclei count, 72 h",85 nM
same,viability at 10 µM,"[3]; Homo sapiens, A549, log (dose) [M] -5, Control cells, mean, read-out: Mean % Cell Survival",1.02%
same,viability at 4.68 µM,"[3]; Homo sapiens, A549, log (dose) [M] -5.33, Control cells, mean, read-out: Mean % Cell Survival",1.71%
same,viability at 2.19 µM,"[3]; Homo sapiens, A549, log (dose) [M] -5.66, Control cells, mean, read-out: Mean % Cell Survival",1.34%
same,viability at 1 µM,"[3]; Homo sapiens, A549, log (dose) [M] -6, Control cells, mean, read-out: Mean % Cell Survival",1.19%
same,viability at 0.468 µM,"[3]; Homo sapiens, A549, log (dose) [M] -6.33, Control cells, mean, read-out: Mean % Cell Survival",1.55%
same,viability at 0.219 µM,"[3]; Homo sapiens, A549, log (dose) [M] -6.66, Control cells, mean, read-out: Mean % Cell Survival",2.98%
same,viability at 0.1 µM,"[3]; Homo sapiens, A549, log (dose) [M] -7, Control cells, mean, read-out: Mean % Cell Survival",6.37%
same,viability at 0.0468 µM,"[3]; Homo sapiens, A549, log (dose) [M] -7.33, Control cells, mean, read-out: Mean % Cell Survival",4.07%
same,viability at 0.0219 µM,"[3]; Homo sapiens, A549, log (dose) [M] -7.66, Control cells, mean, read-out: Mean % Cell Survival",25.8%
same,viability at 0.01 µM,"[3]; Homo sapiens, A549, log (dose) [M] -8, Control cells, mean, read-out: Mean % Cell Survival",34.2%
same,IC50,"[3]; Homo sapiens, TIS model, non-senescent A549, nuclei count, 72 h",19.5 nM
same,% Cell Survival,[3]; log (dose) [M] -5,0.2886% and 2.786% and 0%
same,% Cell Survival,[3]; log (dose) [M] -5.33,1.948% and 1.5% and 1.695%
same,% Cell Survival,[3]; log (dose) [M] -5.66,1.659% and 1.071% and 1.304%
same,% Cell Survival,[3]; log (dose) [M] -6,0% and 2.071% and 1.499%
same,% Cell Survival,[3]; log (dose) [M] -6.33,1.371% and 2.429% and 0.8475%
same,% Cell Survival,[3]; log (dose) [M] -6.66,4.113% and 2.929% and 1.89%
same,% Cell Survival,[3]; log (dose) [M] -7,5.267% and 9.857% and 3.977%
same,% Cell Survival,[3]; log (dose) [M] -7.33,0% and 0.07143% and 12.1252%
same,% Cell Survival,[3]; log (dose) [M] -7.66,49.3506% and 28.0313%
same,% Cell Survival,[3]; log (dose) [M] -8,102.742%
